Laboratory results published in patent publication US12257263B2, “Pharmaceutical compositions for demodex related blepharitis and eyelid crusting” (Tarsus Pharmaceuticals, Inc., priority 2014, dated 2025).
Where two headings read alike, the source gives them in different places.

How the values were obtained:
[1] = approximately 0.5% to 1% added to balanced salt solutions; cited from earlier work
[2] = system: skin; conditions: 6-day cumulative, cited from earlier work
[3] = system: rabbit skin; conditions: undiluted test material; cited from earlier work
[4] = system: human subjects; conditions: formulation containing 7.6% of Ethylhexyl Stearate, cited from earlier work
[5] = system: rabbit's eyes; conditions: cited from earlier work
[6] = system: eyes of six rabbits; conditions: cited from earlier work
[7] = system: eye; conditions: human, in vivo
Experimental: As this invention is to be used topically, good absorption is achieved by using Propylene Glycol as a solvent for the ivermectin. According to the Cosmetic Ingredients Report Panel Meeting on Jun. 28-29, 2010, the ocular irritation of Propylene Glycol was determined using groups of 6 males and female New Zealand white albino rabbits.

[8] = system: New Zealand white albino rabbits; conditions: undiluted, groups of 6 rabbits; cited from earlier work
[9] = system: rabbit eyes; conditions: cited from earlier work
[10] = system: demodex mites; assay: Presence of demodex mites in eyelash follicles of treated patients; type: in vivo, demodex folliculorum
[11] = system: Demodex folliculorum-associated Oculocutaneous Rosacea; conditions: oral, child, JAMA Dermatol 2014; cited from earlier work

O=C(O)CN(CCN(CC(=O)O)CC(=O)O)CC(=O)O [EDTA, Ethylenediaminetetraacetic acid]
toxicity [1]: not toxic

CCCCCCCCCCCCCCCCCC(=O)OCC(CC)CCCC (centres unmarked) [Ethylhexyl Stearate]
mean maximum irritation index (MMII) ([2]; 10% aqueous solution): 0.33
skin tolerance ([2]; 10% aqueous solution): relatively well tolerated
mean maximum irritation index (MMII) ([2]; undiluted test material): 0.67
skin tolerance ([2]; undiluted test material): poorly tolerated
skin irritation [3]: at most mildly irritating
phototoxicity ([4]; 10 subjects): not phototoxic
photosensitisation ([4]; 27 subjects, some slight reactions reported): not a photosensitizer
irritation and sensitization ([4]; 56 subjects): not an irritant or sensitizer
eye injury ([5]; undiluted test material): did not provoke any significant injury
max Primary irritation Index (PII) ([5]; undiluted, out of 100, at 1 h): 4.67

Cc1c(C)c2c(c(C)c1O)CCC(C)(CCCC(C)CCCC(C)CCCC(C)C)O2 (racemic) [dl-α-tocopherol]
conjunctival irritation (redness) ([6]; rabbit, in vivo): Weak to moderate conjunctival irritation
time by which conjunctival irritation subsided ([6]; rabbit, in vivo): ≤ 7 days
corneal changes ([6]; undiluted, six rabbits, eyes not rinsed): No corneal changes

CC(O)CO (centres unmarked) [Propylene Glycol]
eye irritation [7]: non-irritating
ocular irritation [8]: slight eye irritant

O=C([O-])CN(CCN(CC(=O)[O-])CC(=O)O)CC(=O)O.[Na+].[Na+] [Disodium EDTA, disodium EDTA]
mucous membrane irritation classification [9]: non-irritant

CC[C@H](C)[C@H]1O[C@]2(CC[C@@H]1C)C[C@@H]1C[C@@H](C/C=C(\C)[C@@H](O[C@H]3C[C@H](OC)[C@@H](O[C@H]4C[C@H](OC)[C@@H](O)[C@H](C)O4)[C@H](C)O3)[C@@H](C)/C=C/C=C3\CO[C@@H]4[C@H](O)C(C)=C[C@@H](C(=O)O1)[C@]34O)O2 [Ivermectin (Stromectol), ivermectin]
demodex mites ([10]; Example 2 patient, oral 12 mg plus 4 subsequent doses, with Tea Tree Oil eyelid scrubs twice a day, over 2 months): reduced in numbers but were not completely eliminated
elimination of demodex mites ([10]; oral, a single dose, applicant's experience): does not eliminate the demodex mites
treatment outcome [11]: successfully treated
